pIC50: −log10 of the molar value. Counter-ions that a name gives are not always drawn.
Target: hNav1.7 (Homo sapiens (Human), UniProt Q15858)
Experiment: Tritiated sulfonamide competitive binding to membranes from cells expressing hNav1.7 and the β1 subunit;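 further: Filter-bound radioactivity counted by liquid scintillation, nonspecific binding defined with excess unlabelled ligand, IC50 fitted to percent inhibition of specific binding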
Conditions: not given

Sequence of hNav1.7 (Q15858 other isoform, or with tags, fused parts or gaps): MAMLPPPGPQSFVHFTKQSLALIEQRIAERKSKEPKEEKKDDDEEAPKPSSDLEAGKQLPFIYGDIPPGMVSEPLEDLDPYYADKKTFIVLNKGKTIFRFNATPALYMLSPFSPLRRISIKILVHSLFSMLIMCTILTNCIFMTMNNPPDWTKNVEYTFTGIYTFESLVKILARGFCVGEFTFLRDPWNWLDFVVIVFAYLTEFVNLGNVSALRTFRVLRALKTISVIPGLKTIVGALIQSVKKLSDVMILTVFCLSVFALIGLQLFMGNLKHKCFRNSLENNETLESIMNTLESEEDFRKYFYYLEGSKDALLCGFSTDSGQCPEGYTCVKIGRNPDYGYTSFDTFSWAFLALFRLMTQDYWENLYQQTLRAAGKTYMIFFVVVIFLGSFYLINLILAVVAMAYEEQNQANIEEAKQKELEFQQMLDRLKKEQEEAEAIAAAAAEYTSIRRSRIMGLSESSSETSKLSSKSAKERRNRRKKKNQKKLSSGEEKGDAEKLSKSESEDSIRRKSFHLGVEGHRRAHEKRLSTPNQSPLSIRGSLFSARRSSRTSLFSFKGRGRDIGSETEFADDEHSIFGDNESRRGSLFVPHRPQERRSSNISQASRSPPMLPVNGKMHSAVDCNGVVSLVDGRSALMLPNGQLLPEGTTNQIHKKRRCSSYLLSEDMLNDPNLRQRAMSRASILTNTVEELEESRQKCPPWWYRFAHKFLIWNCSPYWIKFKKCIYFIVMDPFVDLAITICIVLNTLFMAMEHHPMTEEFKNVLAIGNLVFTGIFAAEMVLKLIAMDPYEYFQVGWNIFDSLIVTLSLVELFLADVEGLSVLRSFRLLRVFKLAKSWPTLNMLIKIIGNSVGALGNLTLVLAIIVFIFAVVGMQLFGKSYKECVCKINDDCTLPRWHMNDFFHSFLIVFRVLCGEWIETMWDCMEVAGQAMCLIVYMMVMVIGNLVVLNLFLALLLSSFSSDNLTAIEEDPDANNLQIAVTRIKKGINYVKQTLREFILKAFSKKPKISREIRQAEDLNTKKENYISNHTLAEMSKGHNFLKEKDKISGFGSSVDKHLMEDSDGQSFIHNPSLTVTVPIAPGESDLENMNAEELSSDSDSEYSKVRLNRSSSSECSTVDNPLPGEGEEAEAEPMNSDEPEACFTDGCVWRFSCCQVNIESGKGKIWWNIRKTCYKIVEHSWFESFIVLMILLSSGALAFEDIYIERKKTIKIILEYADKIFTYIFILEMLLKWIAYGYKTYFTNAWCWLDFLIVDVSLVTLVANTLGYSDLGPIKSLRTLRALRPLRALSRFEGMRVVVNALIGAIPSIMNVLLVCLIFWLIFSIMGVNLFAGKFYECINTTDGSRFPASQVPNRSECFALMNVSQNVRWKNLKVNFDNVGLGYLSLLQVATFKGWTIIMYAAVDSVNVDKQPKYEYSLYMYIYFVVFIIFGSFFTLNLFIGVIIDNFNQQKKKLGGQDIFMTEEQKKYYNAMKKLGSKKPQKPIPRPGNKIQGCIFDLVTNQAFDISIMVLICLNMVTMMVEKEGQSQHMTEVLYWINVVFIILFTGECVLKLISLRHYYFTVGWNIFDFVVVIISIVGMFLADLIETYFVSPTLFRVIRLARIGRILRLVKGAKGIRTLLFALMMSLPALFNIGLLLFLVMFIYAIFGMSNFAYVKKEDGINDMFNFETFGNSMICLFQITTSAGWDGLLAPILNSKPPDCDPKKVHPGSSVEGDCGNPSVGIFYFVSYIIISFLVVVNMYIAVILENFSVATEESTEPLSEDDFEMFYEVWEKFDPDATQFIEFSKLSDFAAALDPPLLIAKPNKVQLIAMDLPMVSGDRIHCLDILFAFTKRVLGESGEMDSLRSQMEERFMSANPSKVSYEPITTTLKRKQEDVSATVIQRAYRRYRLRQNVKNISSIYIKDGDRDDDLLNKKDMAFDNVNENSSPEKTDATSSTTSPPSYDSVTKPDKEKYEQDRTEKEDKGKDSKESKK
Sequence of hNav1.7 (Q07699 19-218 partner): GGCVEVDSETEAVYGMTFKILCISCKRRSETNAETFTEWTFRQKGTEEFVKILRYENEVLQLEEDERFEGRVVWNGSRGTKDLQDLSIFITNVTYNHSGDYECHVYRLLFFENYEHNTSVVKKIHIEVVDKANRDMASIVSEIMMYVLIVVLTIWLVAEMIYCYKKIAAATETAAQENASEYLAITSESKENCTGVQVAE

SMILES | pIC50
O=C(NS(=O)(=O)C1CC1)c1cc(C2CC2)c(CN2CCC(Oc3ccc(C(F)(F)F)cc3)CC2)cc1F [Example 500, 5-cyclopropyl-N-(cyclopropylsulfonyl)-2-fluoro-4-((4-(4-(trifluoromethyl)phenoxy)piperidin-1-yl)methyl)benzamide] | 8.11
C[C@@H]1CN(Cc2cc(F)c(C(=O)NS(C)(=O)=O)cc2C2CC2)CCN1[C@@H](C)c1cc(Cl)cc(Cl)c1 [Example 571, 5-cyclopropyl-4-(((R)-4-((S)-1-(3,5-dichlorophenyl)ethyl)-3-methylpiperazin-1-yl)methyl)-2-fluoro-N-(methylsulfonyl)benzamide] | 7.35
O=C(NS(=O)(=O)C1CC1)c1cc(C2CC2)c(CN2CCC(Oc3ccc(Cl)c(C(F)(F)F)c3)CC2)cc1F [Example 520, 4-((4-(4-chloro-3-(trifluoromethyl)phenoxy)piperidin-1-yl)methyl)-5-cyclopropyl-N-(cyclopropylsulfonyl)-2-fluorobenzamide, trifluoroacetic acid salt] | 8.14
CS(=O)(=O)NC(=O)c1cc(C2CC2)c(O[C@@H]2CCCN(Cc3ccccc3Cl)C2)cc1F [Example 24, (R)-4-((1-(2-chlorobenzyl)piperidin-3-yl)oxy)-5-cyclopropyl-2-fluoro-N-(methylsulfonyl)benzamide] | 8.22
C[C@H](c1cc(Cl)cc(Cl)c1)N1CCN(Cc2cc(F)c(C(=O)NS(=O)(=O)C3CC3)cc2C2CC2)C[C@@H]1C [Example 566, 5-cyclopropyl-N-(cyclopropylsulfonyl)-4-(((S)-4-((R)-1-(3,5-dichlorophenyl)ethyl)-3-methylpiperazin-1-yl)methyl)-2-fluorobenzamide] | 8.57
CS(=O)(=O)NC(=O)c1cc(C2CC2)c(CN2CCN(Cc3cc(Cl)cc(Cl)c3)CC2)cc1F [Example 517, 5-cyclopropyl-4-((4-(3,5-dichlorobenzyl)piperazin-1-yl)methyl)-2-fluoro-N-(methylsulfonyl)benzamide, trifluoroacetic acid salt] | 7.82
CC(C)(c1cccc(Cl)c1)N1CCC[C@@H](Oc2cc(F)c(C(=O)NS(C)(=O)=O)cc2C2CC2)C1 [Example 529, (R)-4-((1-(2-(3-chlorophenyl)propan-2-yl)piperidin-3-yl)oxy)-5-cyclopropyl-2-fluoro-N-(methylsulfonyl)benzamide, trifluoroacetic acid salt] | 8.62
O=C(NS(=O)(=O)N1CCC1)c1cc(C2CC2)c(O[C@@H]2CCCN(Cc3ccc(F)cc3C(F)(F)F)C2)cc1F [Example 36, (R)—N-(azetidin-1-ylsulfonyl)-5-cyclopropyl-2-fluoro-4-((1-(4-fluoro-2-(trifluoromethyl)benzyl)piperidin-3-yl)oxy)benzamide] | 8.44
O=C(NS(=O)(=O)C1CC1)c1cc(C2CC2)c(CN2CCC(Oc3ncc(C(F)(F)F)cc3Cl)CC2)cc1F [Example 524, 4-((4-((3-chloro-5-(trifluoromethyl)pyridin-2-yl)oxy)piperidin-1-yl)methyl)-5-cyclopropyl-N-(cyclopropylsulfonyl)-2-fluorobenzamide, trifluoroacetic acid salt] | 7.94
O=C(NS(=O)(=O)C1CC1)c1cc(C2CC2)c(O[C@@H]2CCCN(Cc3ccccc3Cl)C2)cc1F [Example 23, (R)-4-((1-(2-chlorobenzyl)piperidin-3-yl)oxy)-5-cyclopropyl-N-(cyclopropylsulfonyl)-2-fluorobenzamide] | 8.77

Same assay, conditions: read-out: Ligand Binding Assay; 100 pM [3H]compound, membranes with hNav1.7 and β1 subunit, 18 h, room temperature

SMILES | pIC50
CS(=O)(=O)NC(=O)c1cc(C2CC2)c(O[C@@H]2CCCN(Cc3cccc(C(F)(F)F)c3)C2)cc1F [Example 319, (R)-5-cyclopropyl-2-fluoro-N-(methylsulfonyl)-4-((1-(3-(trifluoromethyl)benzyl)piperidin-3-yl)oxy)benzamide] | 8.27
C[C@H](c1cc(Cl)cc(Cl)c1)N1CCC(COc2cc(F)c(C(=O)NS(C)(=O)=O)cc2Cl)CC1 [Example 404, (R)-5-chloro-4-((1-(1-(3,5-dichlorophenyl)ethyl)piperidin-4-yl)methoxy)-2-fluoro-N-(methylsulfonyl)benzamide, trifluoroacetic acid] | 7.70
COC[C@H](c1ccc(F)c(C(F)(F)F)c1)N1CCC(COc2cc(F)c(C(=O)NS(C)(=O)=O)cc2C2CC2)CC1 (single isomer, unassigned) [Example 188] | 8.28
CCS(=O)(=O)NC(=O)c1cc(C2CC2)c(OCC2CCN([C@@H](COC)c3ccc(Cl)cc3Cl)CC2)cc1F [Example 287, (R)-5-cyclopropyl-4-((1-(1-(2,4-dichlorophenyl)-2-methoxyethyl)piperidin-4-yl)methoxy)-N-(ethylsulfonyl)-2-fluorobenzamide] | 8.46
CCS(=O)(=O)NC(=O)c1cc(C2CC2)c(OCC2CCN(Cc3cc(C(F)(F)F)cc(C4CC4)n3)CC2)cc1F [Example 307, 5-cyclopropyl-4-((1-((6-cyclopropyl-4-(trifluoromethyl)pyridin-2-yl)methyl)piperidin-4-yl)methoxy)-N-(ethylsulfonyl)-2-fluorobenzamide] | 8.17
CS(=O)(=O)NC(=O)c1cc(C2CC2)c(OCC2CCN(C(c3ccc(F)cc3)c3ccc(F)cc3)CC2)cc1F [Example 418, 4-((1-(bis(4-fluorophenyl)methyl)piperidin-4-yl)methoxy)-5-cyclopropyl-2-fluoro-N-(methylsulfonyl)benzamide, trifluoroacetic acid salt] | 8.49
O=C(NS(=O)(=O)C1CC1)c1cc(C2CC2)c(OCC2CCN(CCC(F)(F)F)CC2)cc1F [Example 193, 5-Cyclopropyl-N-(cyclopropylsulfonyl)-2-fluoro-4-((1-(3,3,3-trifluoropropyl)piperidin-4-yl)methoxy)benzamide] | 7.28
CC1(Oc2cc(C(F)(F)F)c(Cl)cn2)CCN(Cc2cc(F)c(C(=O)NS(=O)(=O)C3CC3)cc2C2CC2)CC1 [Example 472, 4-((4-((5-chloro-4-(trifluoromethyl)pyridin-2-yl)oxy)-4-methylpiperidin-1-yl)methyl)-5-cyclopropyl-N-(cyclopropylsulfonyl)-2-fluorobenzamide, trifluoroacetic acid salt] | 8.44
O=C(NS(=O)(=O)N1CCC1)c1cc(C2CC2)c(OCC2CCN(c3ccccc3)CC2)cc1F [Example 291, N-(azetidin-1-ylsulfonyl)-5-cyclopropyl-2-fluoro-4-((1-phenylpiperidin-4-yl)methoxy)benzamide] | 7.96
CS(=O)(=O)NC(=O)c1cc(C2CC2)c(OCC2CCN(c3cc(Cl)cc(Cl)c3)CC2)cc1F [Example 292, 5-Cyclopropyl-4-((1-(3,5-dichlorophenyl)piperidin-4-yl)methoxy)-2-fluoro-N-(methylsulfonyl)benzamide] | 8.54
CC1(COc2cc(F)c(C(=O)NS(=O)(=O)C3CC3)cc2C2CC2)CN(c2ccc(Cl)c(C(F)(F)F)n2)C1 [Example 485, 4-((1-(5-chloro-6-(trifluoromethyl)pyridin-2-yl)-3-methylazetidin-3-yl)methoxy)-5-cyclopropyl-N-(cyclopropylsulfonyl)-2-fluorobenzamide] | 8.35
O=C(NS(=O)(=O)N1CCC1)c1cc(C2CC2)c(CN2CCC(OCc3ccc(F)cc3Cl)CC2)cc1F [Example 479, N-(azetidin-1-ylsulfonyl)-4-((4-((2-chloro-4-fluorobenzyl)oxy)piperidin-1-yl)methyl)-5-cyclopropyl-2-fluorobenzamide, trifluoroacetic acid salt] | 7.26
CS(=O)(=O)NC(=O)c1cc(C2CC2)c(OCC2CCN(S(=O)(=O)c3ccc(C(F)(F)F)cc3Cl)CC2)cc1F [Example 384, 4-((1-((2-chloro-4-(trifluoromethyl)phenyl)sulfonyl)piperidin-4-yl)methoxy)-5-cyclopropyl-2-fluoro-N-(methylsulfonyl)benzamide] | 7.79
O=C(NS(=O)(=O)C1CC1)c1cc(C2CC2)c(CN2[C@@H]3CC[C@H]2CC(Oc2cc(C(F)(F)F)cc(Cl)c2F)C3)cc1F (stereo partly drawn) [Example 470, 4-(((1R,3r,5S)-3-(3-chloro-2-fluoro-5-(trifluoromethyl)phenoxy)-8-azabicyclo[3.2.1]octan-8-yl)methyl)-5-cyclopropyl-N-(cyclopropylsulfonyl)-2-fluorobenzamide, trifluoroacetic acid salt] | 8.42
O=C(NS(=O)(=O)C1CC1)c1cc(C2CC2)c(OCC2CCN(S(=O)(=O)c3ccc(OC(F)(F)F)cc3)CC2)cc1F [Example 379, 5-cyclopropyl-N-(cyclopropylsulfonyl)-2-fluoro-4-((1-((4-(trifluoromethoxy)phenyl)sulfonyl)piperidin-4-yl)methoxy)benzamide] | 7.76
CS(=O)(=O)NC(=O)c1cc(C2CC2)c(OCC2CCN(CC3(C(F)(F)F)CCCC3)CC2)cc1F [Example 329, 5-cyclopropyl-2-fluoro-N-(methylsulfonyl)-4-((1-((1-(trifluoromethyl)cyclopentyl)methyl)piperidin-4-yl)methoxy)benzamide trifluoroacetic acid salt] | 8.48
C[C@H](c1cc(Cl)cc(Cl)c1F)N1CCC(COc2cc(F)c(C(=O)NS(C)(=O)=O)cc2C2CC2)CC1 (single isomer, unassigned) [Example 237] | 8.54
C[C@@H](c1cc(Cl)cc(C(F)(F)F)c1)N1CCC(COc2cc(F)c(C(=O)NS(C)(=O)=O)cc2C2CC2)CC1 (single isomer, unassigned) [Example 277] | 8.40
COC[C@H](c1cccc(Cl)c1)N1CCC(COc2cc(F)c(C(=O)NS(C)(=O)=O)cc2C2CC2)CC1 (single isomer, unassigned) [Example 263] | 7.70
Cc1cc(F)ccc1S(=O)(=O)N1CCC(COc2cc(F)c(C(=O)NS(C)(=O)=O)cc2C2CC2)CC1 [Example 386, 5-cyclopropyl-2-fluoro-4-((1-((4-fluoro-2-methylphenyl)sulfonyl)piperidin-4-yl)methoxy)-N-(methylsulfonyl)benzamide] | 7.28
CS(=O)(=O)NC(=O)c1cc(C2CC2)c(O[C@H]2CCCN(Cc3ccc(F)cc3Cl)C2)cc1F [Example 573, (S)-4-((1-(2-chloro-4-fluorobenzyl)piperidin-3-yl)oxy)-5-cyclopropyl-2-fluoro-N-(methylsulfonyl)] | 6.97

From patent US9546164B2 (GENENTECH, INC., priority 2013, dated 2017)
